# Results: ChEMBL document CHEMBL1255507, “Azole derivatives as histamine H3 receptor antagonists, part 2: C-C and C-S coupled heterocycles” (Bioorg Med Chem Lett, 2010)
# pKi: −log10 of the molar value.
# Molecular target: T1, Histamine H3 receptor (Homo sapiens, UniProt Q9Y5N1)
# Assay: Displacement of [125I]Iodoproxyfan from human histamine H3 receptor expressed in HEK293 cells
# Type: cell-based
# T1 sequence (Q9Y5N1 whole entry): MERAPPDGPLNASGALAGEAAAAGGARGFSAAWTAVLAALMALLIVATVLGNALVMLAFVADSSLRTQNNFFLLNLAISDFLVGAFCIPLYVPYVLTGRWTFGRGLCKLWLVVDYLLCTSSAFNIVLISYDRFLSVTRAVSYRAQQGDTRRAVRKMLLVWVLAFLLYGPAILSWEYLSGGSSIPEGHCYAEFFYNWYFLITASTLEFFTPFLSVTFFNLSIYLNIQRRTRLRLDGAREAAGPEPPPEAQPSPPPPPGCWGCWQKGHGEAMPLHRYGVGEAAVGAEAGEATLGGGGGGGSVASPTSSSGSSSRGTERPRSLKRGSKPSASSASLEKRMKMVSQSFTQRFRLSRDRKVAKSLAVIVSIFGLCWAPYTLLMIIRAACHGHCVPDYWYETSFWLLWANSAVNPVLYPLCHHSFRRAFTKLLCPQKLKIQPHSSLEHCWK
row,SMILES,pKi
1,c1cc(-c2nnc(SCCCN3CCCCC3)o2)ccn1,6.73
2,c1cncc(-c2noc(CCCCN3CCCCC3)n2)c1,6.96
3,C1CCN(CCCOc2nc3c(s2)CN(CCCN2CCCCC2)CC3)CC1,7.70
4,CC(=O)c1sc(SCCCN2CCCCC2)nc1C,< 6.00
5,c1ccc(-c2cnc(CCCCN3CCCCC3)o2)cc1,7.20
6,c1ccc(-c2nc(SCCCN3CCCCC3)sc2-c2ccccc2)cc1,8.13
7,c1ccc(-c2nc(SCCCN3CCCCC3)oc2-c2ccccc2)cc1,7.49

# Molecular target: T1, Histamine H3 receptor
# Assay: Displacement of [3H]Methylhistamine from human histamine H3 receptor expressed in HEK293 cells
# Type: cell-based
row,SMILES,pKi
1,c1cc(-c2nc(SCCCN3CCCCC3)nn2CCCN2CCCCC2)ccn1,7.74
